pIC50: −log10 of the molar value.
Experiments:
Cos-7 = test: MTT screening assay, Cos-7 non-cancer cells; assay type: cell-based, monkey; conditions: Primates, 72 h incubation
Source text: The ability of newly synthesized indole phytoalexins to suppress cell proliferation was screened in vitro on eight cancer cell lines including human colorectal carcinoma (Caco-2 and HCT116), human cervical cancer (HeLa), human breast adenocarcinoma (MCF-7, MDA-MB-231), human alveolar adenocarcinoma (A549) and human leukemic T cell lymphoma (Jurkat), and two non-cancer cell lines (MCF-10A, Cos-7).
The cell lines used for this study were Caco-2 (human colorectal adenocarcinoma cell line, American Type Culture Collection, Manassas, VA, USA (ATCC)), HCT116 (human colorectal carcinoma cells European Collection of Authenticated Cell Cultures, Salisbury, UK (ECACC)), HeLa (human cervical tumor cells, ECACC), MCF-7 (human breast tumor cells, ECACC), MDA-MB-231 (human breast tumor cells, ATCC), A549 (human lung carcinoma cells, ATCC), BLM (human melanoma lung metastases, a gift from prof. K. Smetana, Institute of Anatomy, Charles University in Prague), Jurkat (human leukemia cell line, ECACC), Cos-7 (immortalized monkey kidney fibroblasts, ATCC) and MCF-10A (human mammary epithelial cells, ATCC). Caco-2, MCF-7, BLM, Cos-7 and A549 cells were cultured in Dulbecco’s Modified Eagle’s Medium (DMEM) with high glucose and sodium pyruvate (GE Healthcare, Piscataway, NJ, USA); HCT116 lines, HeLa, MDA-MB-231 and Jurkat were cultured in RPMI-1640 medium; and MCF10A cells were cultured in high glucose DMEM/F12 (Dulbecco’s Modified Eagle’s Medium F12). The media were enriched with 10% fetal bovine serum (FBS) and a 1% solution of a mixture of antibiotics and antimycotics 1× HyClone™ (GE Healthcare, Chicago, IL, USA). DMEM/F12 medium was supplemented with epidermal growth factor (EGF) (20 ng/mL final), hydrocortisone (0.5 μg/mL final) and insulin (10 μg/mL final) (Sigma-Aldrich Chemie, Steinheim, Germany). The cells were placed in an incubator at 37 °C with humidified air containing 5% CO2.
The MTT assay is a colorimetric method used to quantify the metabolic activity of cells. MTT (3-(4,5-di-methylthiazol-2-yl)2,5-diphenyltetrazolium bromide) (Sigma-Aldrich Chemie, Steinheim, Germany) is reduced by oxidoreductases in the cytosol of cells to light-absorbing formazan, the presence of which can be measured spectrophotometrically and determines the half-maximal inhibitory concentration (IC50). A549 cells were seeded in […] culture plates at a density of 5 × 10^3 per well. […]
We also incubated the cells with chloroquine at concentrations of 5–20 µM, which was added 1 h before the addition of the test substance, and cisplatin at concentrations of 3–10 µM. […] After 24 h, the absorbance was measured at a wavelength of 540 nm using an automated Cytation™ 3 Cell Imaging Multi-Mode Reader (Biotek, Winooski, VT, USA). […]

A549 cells = test: BrdU cell proliferation assay; assay type: cell-based; conditions: Homo sapiens; A549, 72 h of incubation, 5-30 μM; read-out: IC50, BrdU incorporation
Protocol: Measurement of the BrdU, a thymidine analogue, is a sensitive method used for the detection of DNA synthesis during the S phase of the cell cycle.
A549 tumor cells were plated at a density of 5 × 10^3 cells/well in a volume of 80 µL (96-well plates). After 24 h of incubation in the respective medium, we added the indole phytoalexin 49 in concentrations of 5–30 µM. After 48 h of incubation with the test substance, we added BrdU labeling solution and incubated for another 24 h. Subsequently, the cells were fixed for 30 min with a fixing solution, aspirated and incubated with peroxidase-conjugated anti-BrdU antibody (100 µL, 1:100). After washing with washing buffer 3 times, TMB substrate solution (tetramethylbenzidine, Roche, Basel, Switzerland) was added in a volume of 100 uL to each well. During the reaction, 25 µL of 1M H2SO4 was added as a stop solution, and the amount of BrdU incorporated was detected with an automated Cytation™ 3 Cell Imaging Multi-Mode Reader (Biotek, Winooski, VT, USA) at a wavelength of 450 nm. Three independent analyses were performed.

## CC(C)(C)OC(=O)n1cc(CNC(=O)Nc2ccc(NC(=O)NCc3cn(C(=O)OC(C)(C)C)c4ccccc34)cc2)c2ccccc21 [Compound 49, N,N′-(1,4-phenylene)bis{N′-[1-(tert-butoxycarbonyl)indol-3-yl]methyl (urea)}]
Cos-7
  pIC50: < 4.00
A549 cells
  pIC50: 4.79

From PMC9822133, “Design, Synthesis and Antiproliferative Evaluation of Bis-Indole Derivatives with a Phenyl Linker: Focus on Autophagy” (Molecules, 2022)
